Measured values taken from PMC9865752, “Design and Synthesis of (Z)-2-(Benzylamino)-5-benzylidenethiazol-4(5H)-one Derivatives as Tyrosinase Inhibitors and Their Anti-Melanogenic and Antioxidant Effects” (Molecules, 2023).
Read-outs that look alike come from different tables or passages of the source.

What was measured:
[1] = SIN-1-induced ROS scavenging assay; conditions: 20 µM; SIN-1 as ROS generator; DCFH-DA probe
Description: The scavenging activities of the BABT derivatives 1–14 against ROS and peroxynitrite (ONOO^−) were investigated because the antioxidant activities of the compounds may modulate melanogenesis. To measure the ROS scavenging activities of BABT derivatives, 2′,7′-dichlorodihydrofluorescein diacetate (DCFH-DA) and 3-morpholinosydnonimine (SIN-1) were used as a fluorogenic probe and ROS generator, respectively. The reaction of DCFH-DA with esterase produces 2′,7′-dichlorodihydrofluorescein (DCFH), which generates the fluorescent compound 2′,7′-dichlorofluorescein (DCF) by reacting with ROS produced by SIN-1. Therefore, ROS scavenging activities were determined by measuring the DCF fluorescence remaining after the BABT derivatives scavenged the ROS generated by SIN-1. […] BABT derivatives and Trolox, the positive control, were used at a concentration of 20 µM.
The ROS scavenging activities of the BABT derivatives were measured using an oxidant-sensitive fluorescent probe. Derivatives or Trolox (10 µL; final concentration: 20 µM) were seeded in a black 96-well plate. Then, 10 µL of SIN-1 (10 µM) was added to induce radical species generation and mixed with 180 µL of sodium phosphate buffer (pH 7.4) containing 12.5 µM DCF-DA and 600 units of esterase. Fluorescence intensity was measured at emission and excitation wavelengths of 535 and 485 nm, respectively, using a fluorescence microplate reader (Berthold Technologies GmbH & Co., Wien, Austria). Trolox was used as the positive control.

mushroom tyrosinase [2] = target: T1, mushroom tyrosinase (Agaricus bisporus, UniProt C7FF04); assay: Kinetic studies of mushroom tyrosinase inhibition (Lineweaver–Burk and Dixon plots); assay type: biochemical; conditions: substrate L-dopa
T1 construct: purchased
Method: Kinetic studies using Lineweaver–Burk plots were performed using four different concentrations (0, 0.5, 1, and 2 µM) of the test derivatives (7 and 8) and five different concentrations (0.5, 1, 2, 4, and 8 mM for 7, and 1, 2, 4, 8, and 16 mM for 8) of L-dopa.
Lineweaver–Burk plots for 7 and 8 were transformed into the corresponding Dixon plots to determine their inhibition constant (Ki) values for the mushroom tyrosinase–inhibitor complex. […] The Ki values for the mushroom tyrosinase–inhibitor complex were obtained from the x-axis value of each convergence point.
Lineweaver–Burk plots of derivatives 7 and 8 were obtained in the presence of L-dopa as the substrate. Briefly, 20 µL aliquots of mushroom tyrosinase aqueous solution (200 units/mL) were added to each well of a 96-well plate containing 10 µL BABT derivative (7 or 8) DMSO solution (final concentrations: 0, 0.5, 1, and 2 µM) and 170 µL of an aqueous solution containing L-dopa (final concentrations: 1.0, 2.0, 4.0, 8.0, and 16.0 mM) and sodium phosphate buffer (pH 6.5, 17.2 mM). The initial rate of dopachrome formation was determined by examining the changes in absorbance at a wavelength of 475 nm (ΔOD475/min) using a microplate reader (VersaMax; Molecular Devices).

B16F10 cells = assay: Measurement of extracellular and intracellular melanin levels; assay type: cell-based, murine; conditions: α-MSH plus IBMX stimulated B16F10 cells, 72 h
Method: To investigate the effects of derivative 8 on extracellular and intracellular melanin levels in B16F10 cells, the cells were treated with various concentrations (5, 10, and 20 µM) of derivative 8 for 1 h, in addition to co-treatment with α-MSH (0.5 µM) and 3-isobutyl-1-methylxanthine (IBMX; 200 µM) to enhance melanin biosynthesis in B16F10 cells. After 72 h of incubation, the effects of 8 on extracellular and intracellular melanin levels were determined by measuring the melanin absorbance in the culture media and cell lysates, respectively, at 405 nm using a microplate reader.
The effect of 8 on melanin production was measured using a standard melanin content assay, with minor modifications. Briefly, B16F10 cells were seeded at a density of 1 × 10^5 cells per well and allowed to adhere to the well bottoms for 24 h under the conditions used for cell cultures. […] After incubation for 72 h at 37 °C in a 5% CO2 atmosphere, melanin levels were determined. To measure the extracellular melanin levels, the absorbance of each well of the culture medium was measured at 405 nm. […] Cultured cells were washed twice with PBS, and the pellets obtained were dissolved using 1 N NaOH solution (200 µL, 10% DMSO) at 60 °C for 1 h. Cell lysates were transferred to the wells of a 96-well plate, and the optical density of melanin dissolved in each well was measured at 405 nm in aqueous DMSO solution using a microplate reader (VersaMax; Molecular Devices).

mushroom tyrosinase [3] = assay: Mushroom tyrosinase inhibition assay; assay type: biochemical; conditions: for IC50: mean ± SEM of three experiments
Method: As mushroom tyrosinase is commercially available and relatively cheap, it is used as a tool for the identification of novel tyrosinase inhibitors. Here, we examined the tyrosinase inhibitory activities of the 14 BABT derivatives against mushroom tyrosinase in the presence of L-tyrosine or L-dopa as substrates.
Mushroom tyrosinase inhibitory activities of BABT derivatives were determined as described previously, with minor modifications. L-Tyrosine and L-dopa were used as substrates to evaluate the enzyme activity. […] Assay mixtures were incubated at 37 °C for 30 min, and dopachrome amounts synthesized were determined by measuring the optical density of each well at 475 nm using a microplate reader (VersaMax; Molecular Devices, Sunnyvale, CA, USA).

[4] = Peroxynitrite scavenging assay; conditions: 20 µM; SIN-1 as generator; DHR123 probe
Method: The effects of the BABT derivatives on peroxynitrite scavenging activities were also examined using SIN-1 as an RNS generator and dihydrorhodamine (DHR123) as an ROS indicator. DHR123 was converted to fluorescent rhodamine 123 by peroxynitrite generated by SIN-1. Therefore, the peroxynitrite scavenging activities of 1–14 were assessed by measuring the fluorescence of rhodamine 123. BABT derivatives and penicillamine, the positive control, were used at a concentration of 20 µM.
The peroxynitrite scavenging activities of the BABT derivatives were assessed using the method developed by Kooy, involving the monitoring of highly fluorescent rhodamine 123, which was rapidly produced from non-fluorescent DHR123 in the presence of peroxynitrite. Rhodamine buffer (pH 7.4) was composed of 50 mM sodium phosphate dibasic, 50 mM sodium phosphate monobasic, 90 mM sodium chloride, 5 mM potassium chloride, and 100 µM DTPA. A 10 µL aliquot of BABT derivatives or PCA (final concentration: 20 µM) was seeded in a black 96-well plate. Then, 10 µL of SIN-1 (10 µM) was added to induce radical species generation and mixed with 180 µL of rhodamine buffer. Fluorescence intensity was measured at emission and excitation wavelengths of 535 and 485 nm, respectively, using a fluorescence microplate reader (Berthold Technologies GmbH & Co.). PCA was used as the positive control.

T1 sequence (C7FF04 1-392): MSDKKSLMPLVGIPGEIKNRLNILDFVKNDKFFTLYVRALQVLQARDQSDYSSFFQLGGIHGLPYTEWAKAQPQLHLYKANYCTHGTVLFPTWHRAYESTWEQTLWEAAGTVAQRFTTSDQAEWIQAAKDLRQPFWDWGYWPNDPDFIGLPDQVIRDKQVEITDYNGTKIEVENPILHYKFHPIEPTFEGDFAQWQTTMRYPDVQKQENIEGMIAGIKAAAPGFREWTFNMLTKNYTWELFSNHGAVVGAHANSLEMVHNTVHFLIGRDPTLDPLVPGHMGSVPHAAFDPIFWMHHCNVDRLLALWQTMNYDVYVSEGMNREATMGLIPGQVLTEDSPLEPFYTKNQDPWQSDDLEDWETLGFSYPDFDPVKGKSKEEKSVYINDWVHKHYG

With `O=C1N=C(NCc2ccccc2)S/C1=C\c1ccc(O)cc1O` [Compound 8, (Z)-2-(benzylamino)-5-(2,4-dihydroxybenzylidene)thiazol-4(5H)-one] the “ROS scavenging activity (in words)” value [1] was “did not show significant ROS scavenging effect”, the Ki (mushroom tyrosinase [2]; Dixon plots, read-out: inhibition constant (Ki) for the mushroom tyrosinase–inhibitor complex) was 810 nM and the mode of inhibition (mushroom tyrosinase [2]; Lineweaver–Burk plots) was “competitive inhibitors”. For the same molecule, the “extracellular melanin levels compared to untreated control” value (B16F10 cells; 5 µM) was 1.22 fold, the “intracellular melanin levels (in words)” value (B16F10 cells; 5 µM) was “more potent inhibitory activity on melanin production than kojic acid at 20 µM” and the “extracellular melanin levels compared to untreated control” value (B16F10 cells; 10 µM) was 1.03 fold. For the same molecule, the “extracellular melanin levels compared to untreated control” value (B16F10 cells; 20 µM) was 1.00 fold, the “intracellular melanin levels (in words)” value (B16F10 cells; 20 µM) was “lower than those in the untreated control” and the “fold higher IC50 value with L-dopa than with L-tyrosine” value (mushroom tyrosinase [3]; L-dopa versus L-tyrosine as substrate) was 4 fold. For the same molecule, the IC50 (mushroom tyrosinase [3]; substrate L-dopa, read-out: IC50 (µM) L-Dopa) was 1.04 ± 0.05 µM, the “fold more potent than kojic acid” value (mushroom tyrosinase [3]; substrate L-tyrosine) was 106 fold and the IC50 (mushroom tyrosinase [3]; substrate L-tyrosine, read-out: IC50 (µM) L-Tyrosine) was 0.27 ± 0.03 µM. For the same molecule, the “peroxynitrite scavenging activity (in words)” value [4] was “scavenged peroxynitrite more potently than did penicillamine”.
